This passage reports relative viability results from the supplement of paper PMC10307832.

Holding throughout (assay): relative viability (nuclei count vs DMSO), 5 days (fraction); higher = more cells survive
Compound in test [1]: C(C(=O)C(=O)O)Br [Bromopyruvate] + CCNC(=O)c1noc(-c2cc(C(C)C)c(O)cc2O)c1-c1ccc(CN2CCOCC2)cc1 [Luminespib] (partner 0.01 µM)
Summed up:
(§1)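 Relative viability was taken as the ratio of nuclei in treated wells to nuclei in vehicle wells. Lung cancer cell lines in 1536-well plates received compounds by pin tool one day after seeding, either one drug alone or a fixed anchor-drug dose plus five library-drug doses (not always all listed) in √10 steps. Nuclei were counted on 4× images after 5 days of treatment, and values are medians of duplicate plates.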

Compound in test [2]: C(C(=O)C(=O)O)Br [Bromopyruvate] + N=C(N)NC(=N)NCCc1ccccc1 [Phenformin] (partner 250 µM)
Summed up:
as §1

Compound in test [3]: C(C(=O)C(=O)O)Br [Bromopyruvate] + Nc1ncn([C@H]2C[C@H](O)[C@@H](CO)O2)c(=O)n1 [Decitabine] (partner 2 µM)
Put shortly:
as §1

Compound in test [4]: CC(O)(CS(=O)(=O)c1ccc(F)cc1)C(=O)Nc1ccc(C#N)c(C(F)(F)F)c1 [Bicalutamide] + C[C@]1(O)C[C@@H](c2nc(-c3ccc4ccc(-c5ccccc5)nc4c3)c3c(N)nccn32)C1 [Linsitinib] (partner 1 µM)
Put shortly: as §1

As to NCI-H1395, the relative viability in test [1] (first compound 1 µM) is 0.661; in test [1] (first compound 3.162 µM), 0.705; in test [1] (first compound 10 µM) it was 0.932; in test [1] (first compound 31.62 µM), 0.754; in test [1] (first compound 100 µM) it was 0.992; in test [2] (first compound 1 µM), 0.419. In addition, the relative viability in test [2] (first compound 3.162 µM) is 0.43; in test [2] (first compound 10 µM) it was 0.424; in test [2] (first compound 31.62 µM), 0.443; in test [2] (first compound 100 µM), 0.445; in test [3] (first compound 1 µM) it was 0.754; in test [3] (first compound 3.162 µM), 0.717. Besides, the relative viability in test [3] (first compound 10 µM) worked out at 0.751; in test [3] (first compound 31.62 µM), 0.707; in test [3] (first compound 100 µM), 0.707; in test [4] (first compound 0.08 µM), 1.22; in test [4] (first compound 0.253 µM), 1.03; in test [4] (first compound 0.8 µM) it was 1.09. Also, the relative viability in test [4] (first compound 2.53 µM) was determined as 1.

Consider NCI-H358, for which the relative viability in test [1] (first compound 1 µM) was found to be 0.429; in test [1] (first compound 3.162 µM), 0.397; in test [1] (first compound 10 µM) it was 0.554; in test [1] (first compound 31.62 µM) it was 0.322; in test [1] (first compound 100 µM), 0.31; in test [2] (first compound 1 µM), 0.406. Moreover, the relative viability turned out to be 0.327 in test [2] (first compound 3.162 µM); 0.351 in test [2] (first compound 10 µM); 0.304 in test [2] (first compound 31.62 µM); 0.315 in test [2] (first compound 100 µM); 0.2 in test [3] (first compound 1 µM); 0.21 in test [3] (first compound 3.162 µM). Further, the relative viability was determined as 0.223 in test [3] (first compound 10 µM); 0.247 in test [3] (first compound 31.62 µM); 0.238 in test [3] (first compound 100 µM); 0.763 in test [4] (first compound 0.08 µM); 0.65 in test [4] (first compound 0.253 µM); 0.841 in test [4] (first compound 0.8 µM). Besides, the relative viability in test [4] (first compound 2.53 µM) was 0.786.

As for PC-14, the relative viability in test [1] (first compound 1 µM) turned out to be 0.191; in test [1] (first compound 3.162 µM), 0.184; in test [1] (first compound 10 µM) it was 0.169; in test [1] (first compound 31.62 µM), 0.157; in test [1] (first compound 100 µM), 0.203; in test [2] (first compound 1 µM), 0.754. In addition, the relative viability in test [2] (first compound 3.162 µM) came out at 0.737; in test [2] (first compound 10 µM), 0.776; in test [2] (first compound 31.62 µM), 0.546; in test [2] (first compound 100 µM), 0.516; in test [3] (first compound 1 µM), 0.226; in test [3] (first compound 3.162 µM), 0.229. For the same cell line, the relative viability in test [3] (first compound 10 µM) amounted to 0.204; in test [3] (first compound 31.62 µM), 0.262; in test [3] (first compound 100 µM), 0.201; in test [4] (first compound 0.08 µM), 0.968; in test [4] (first compound 0.253 µM), 0.967; in test [4] (first compound 0.8 µM), 0.976. The relative viability in test [4] (first compound 2.53 µM) came out at 1.04.
